Patent US20150359763A1, “USE OF 3-BROMOPYRUVATE AS A CONTRACEPTIVE” (Board of Regents of the Nevada System of Higher Education, …, priority 2013, published 2015)
pEC50: −log10 of the molar value. “And” between values parts separate entries of the source, which are not always exact repeats. Equal values may be shown once. “Also recorded” adds a separate entry of the source. Read-outs that look alike come from different tables or passages of the source.

Key:
[1] = test system: mouse cauda epididymal sperm; test: Permanence of sperm immobilization: exposure in PBS, wash, activation in HTF, CASA; type: cell-based; settings: for motility development after short exposure and washout / motility developed in HTF after exposure and washing: 37° C.; for motility development after short exposure and washout: 5 min, washed, HTF 30 and 60 minutes; for motility developed in HTF after exposure and washing: PBS with 1 mM 3-BrPA, 1-30 min, washed twice, HTF 30 min and 60 min
Experimental: Studies were then performed to determine if sperm-immobilizing effects of 3BP were permanent or transient. Mouse cauda epididymal sperm were collected into PBS (control), PBS containing 1 mM 3BP, PBS containing 1 mM deoxyglucose, PBS with 0.5 mM lonidamine and PBS with 1 mM oxythiamine, followed by incubation at 37° C. for 5 min. The compounds were then washed away with PBS and then the treated sperm were incubated in HTF medium for 30 minutes and 60 minutes, followed by measurement of sperm motility by CASA. […] Again, 3BP had the strongest effects. […] These studies indicate that the sperm motility-abolishing effect of 3BP was permanent. Further, once exposed, sperm will never be able to develop motility.
To determine if sperm exposed to 3BP could still be activated in HTF, mouse sperm from the cauda epididymis were collected into PBS (control) and PBS containing 1 mM 3-BrPA, respectively. Then sperm were incubated in 37° C. for 1, 5, 10, 20 and 30 min, respectively. To remove 3BP, the sperm were washed twice with PBS. The sperm were then transferred to the HTF medium and activated for 30 min (FIG. 5, A) and 60 min (FIG. 5, B), followed by measurement the sperm motility using CASA.

[2] = test system: mouse cauda epididymal sperm; test: Mouse sperm motility in HTF with compound, measured by CASA; type: cell-based; settings: for development of sperm motility: incubated 30 min and 60 min; for inhibition of sperm motility in vitro: HTF with 1 mM analog, 5 to 60 min
Experimental: Sperm motility requires energy, the sources of which include both glycolysis and mitochondrial activity. The effects of four glycolytic inhibitors (3-bromopyruvate, 2-deoxyglucose, lonidamin and oxythiamine) on sperm motility were evaluated. First mouse cauda epididymal sperm were collected into PBS, HTF (sperm-activating solution), HTF supplemented with 1 mM 3-Bromopyruvate, HTF containing 1 mM 2-Deoxyglucose, HTF with 0.5 mM Lonidamin and HTF with 1 MM Oxythiamine. Epididymal sperm can gain partial motility in PBS, but will never develop hyperactivated motility, which is required for sperm to be competent to fertilize eggs. On the other hand, when epididymal sperm are incubated in human tubular fluid (HTF) medium, which contains all of the sperm motility-activating factors, sperm will quickly develop hyperactivated motility and the motility peaks within 30 minutes and can last at least for several hours at 37° C. In the present studies, mouse cauda epididymal sperm were incubated in PBS, HTF and HTF supplemented with the 4 compounds for 30 min and 60 min. Sperm motility was then measured by Computer-Assisted Sperm Analysis (CASA). […] These studies indicate that in the presence of 3BP (at 1 mM), sperm cannot develop motility.
To determine how quickly 3BP could immobilize sperm, mouse cauda epididymal sperm were collected into HTF and HTF supplemented with 1 mM 3BP, respectively. Sperm were then incubated at 37° C. for 5, 10, 20 30, 40 and 60 min, respectively. Sperm motility was completely lost within 10 minutes at 1 mM concentration and the inhibitory effect appeared to be permanent (see FIG. 3).
Given that 3BP could immobilize sperm, it was determined if analogs of 3BP could have the same effect. Four 3BP analogs, including methyl-pyruvate, ethyl-pyruvate, isoamyl-pyruvate and propyl-pyruvate, were tested to determine if they also had the inhibitory effect on sperm in vitro. In the first study, the effects of methyl-pyruvate and ethyl-pyruvate on sperm motility were evaluated (FIG. 4A). Mouse epididymal sperm were collected into HTF (control), HTF containing 1 mM Methyl-pyruvate and HTF with 1 mM ethyl-pyruvate, respectively. After incubation at 37° C. for 5, 10, 20, 30, 40 and 60 min, sperm motility was measured using CASA.

mouse epididymal sperm = test: EC50 and EC100 for immobilizing mouse sperm within 20 seconds of contact, CASA; type: cell-based
Experimental: (§1) To determine at what concentrations 3BP can block the motility of 50% and 100% of the total motile sperm, mouse epididymal sperm were collected into PBS (pH 7.5) and then transferred to pre-warmed (37° C.) HTF medium containing serial dilutions of 3BP (pH 7.5) at concentrations ranging from 10 to 130 mM with a 10 mM increment. Motility was measured using CASA upon 20 seconds of contact with 3BP. […] Therefore, the 3BP EC50 is ˜40˜50 mM and EC100 is ˜100 mM for mouse epididymal sperm at pH 7.5 (FIG. 9). Similarly, the EC50 and EC100 of 3BP in immobilizing human sperm were determined. Human “swim-up” sperm were added to HTF containing 3BP at increasing concentrations ranging from 100 mM to 210 mM at pH 7.5. Sperm motility was measured upon 20 seconds of contact using CASA. […] However, the vaginal environment tends to be acidic (˜pH 5.0) and the effectiveness of 3BP in immobilizing sperm was further evaluated when pH was set at ˜5.0 (FIGS. 10 and 12).

sperm ATP production = test: Sperm ATP content, Luciferase Bioluminescence Assay kit; type: cell-based; settings: 1 mM 3BP, during 60 min activation by HTF
Experimental: The ATP production in sperm was measured with or without exposure to 1 mM 3BP during 60 min activation by HTF. Sperm ATP contents were measured using a Luciferase Bioluminescence Assay kit (FIG. 13). […] However, such a drastic suppression cannot be explained solely by its anti-glycolytic property because glycolysis provides only partial energy sperm motility requires.

[3] = test system: sperm mitochondrial membrane potential; test: Sperm mitochondrial membrane potential, JC-1 assays; type: cell-based; settings: 3BP 1 mM
Experimental: (§2) Whether 3BP could block mitochondrial activity in sperm was further examined because mitochondria also contribute energy production in sperm (FIG. 14). […] In control sperm trajectory tracking assays, the cauda epididymal sperm were collected into the HTF medium and incubated for 1, 5, 10 and 20 min (FIG. 15). In 3BP-treated sperm trajectory tracking assays, the cauda epididymal sperm were collected HTF+1 mM 3-BrPA and incubated for 1, 5, 10 and 20 min (FIG. 15). In control human sperm trajectory tracking assays, the human “swim-up” sperm were incubated HTF for 1, 5, 10, and 20 minutes (FIG. 16). In 3BP-treated human sperm movie clips, the human “swim-up” sperm were incubated in HTF+1 mM 3-BrPA for 1, 5, 10 and 20 minutes (FIG. 16). Further, the histology of the vagina and uterus in female mice that received daily intravaginal application of 3BP (200-400 ul lubricant containing 20 mM 3BP) for 3 months was accessed.

[4] = test system: vagina and uterus in female mice; test: Histology of vagina and uterus after daily intravaginal application; type: in vivo; settings: daily intravaginal 200-400 ul lubricant containing 20 mM 3BP, 3 months
Experimental: as §2

human "swim-up" sperm [5] = test: Motility of human swim-up sperm exposed to 3BP, CASA; type: cell-based; settings: 1 mM 3BP
Experimental: In normal men in their reproductive ages, ˜30-40% of sperm in human ejaculates are immotile or display weak motility. A ‘swim-up” procedure allows motile sperm to be enriched. To see the potential of 3BP in suppressing sperm motility, the swim-up procedure was first performed to allow the collection of motile sperm and then the motile human sperm were exposed to 3BP to determine if their motility could be abolished. The human semen was left at room temperature for 30 minutes for liquidification and then 2˜3 ml pre-warmed HTF medium were added followed by centrifugation at 1,500 rpm for 5 min. The sperm pellets were resuspended in 1 ml pre-warmed HTF medium and then incubated at 37° C. in anincubator for 60 min. Motile sperm will “swim up” and stay in the upper portion of the medium, in which motile sperm are enriched in. The “swim-up” sperm were collected, 3BP added at a concentration of 1 mM, and the sperm were incubated for 1, 5, 10, 20 and 30 min at 37° C., respectively. Sperm motility was then measured using CASA (FIG. 6).

human semen = test: Sperm motility in liquidified human semen with 3BP; type: cell-based; settings: 1 mM 3BP added directly to liquidified semen, 37° C.
Experimental: To evaluate the effect of 3BP on sperm motility in human semen, human semen was liquidified under room temperature and 3BP was directly added into the liquidified semen at a concentration of 1 mM followed by incubation at 37° C. for 1, 5, 10, 20 and 30 minutes (FIGS. 7 and 8). These studies indicate that 3BP can completely abolish human sperm motility within 5 minutes of contact.

[6] = test system: mouse cauda epididymal sperm; test: Mouse sperm motility in HTF with compound, measured by CASA; type: cell-based; settings: 1 mM 3BP, activated mouse sperm (HTF 30 minutes, 37° C.)
human "swim-up" sperm [7] = test: EC50 and EC100 for immobilizing human sperm within 20 seconds of contact, CASA; type: cell-based; settings: for pEC50: read-out: EC50 (50% of motile sperm immobilized within 20 seconds of contact)
Experimental: as §1

O=CC[C@@H](O)[C@H](O)[C@H](O)CO [2-deoxyglucose, reference compound]
motility development after short exposure and washout ([1]; PBS with 1 mM compound): will permanently impair motility development
development of sperm motility ([2]; HTF with 1 mM compound): appeared to inhibit the development of sperm motility

O=C(O)C(=O)CBr [3BP, 3-bromo-2-oxopropanoic acid]
EC100 (100% of motile sperm immobilized within 20 seconds of contact) (mouse epididymal sperm; pH 4.8): ~17 mM
pEC50 (mouse epididymal sperm; pH 4.8, read-out: EC50 (50% of motile sperm immobilized within 20 seconds of contact)): ~2.30
EC100 (100% of motile sperm immobilized within 20 seconds of contact) (mouse epididymal sperm; pH 7.5): ~100 mM
pEC50 (mouse epididymal sperm; pH 7.5, read-out: EC50 (50% of motile sperm immobilized within 20 seconds of contact)): 1.30 to 1.40
sperm ATP production (sperm ATP production): can effectively block sperm ATP production
sperm mitochondrial membrane potential [3]: inhibition of sperm mitochondrial membrane potential; also recorded: could inhibit the mitochondrial membrane potential
histology of the vagina and uterus [4]: no significant changes in the histology; also recorded: No discernible pathological changes were observed
time to abolish motility of motile human sperm (human "swim-up" sperm [5]; 37° C., swim-up sperm in HTF): 1 to 5 min
exposure time to permanent immobilization with complete loss of motility (human "swim-up" sperm [5]; activated human sperm (HTF 30 minutes, 37° C.)): less than 1 minute
time to completely abolish human sperm motility (human semen): ≤ 5 min
exposure time to permanent immobilization with complete loss of motility [6]: less than 1 minute
exposure time to permanent immobilization with complete loss of motility ([1]; 1 mM 3BP, murine non-activated sperm collected from the epididymis into physiological saline): less than 1 minute
motility developed in HTF after exposure and washing [1]: irreversible
motility developed in HTF after exposure and washing ([1]; listed as 3-BrPA): No motility was developed
motility development after short exposure and washout ([1]; PBS with 1 mM compound): permanent; also recorded: could not develop motility
time to complete loss of sperm motility ([2]; HTF with 1 mM 3BP, 37° C.): ≤ 10 min
development of sperm motility ([2]; HTF with 1 mM compound): almost completely blocked the development of sperm motility
pEC50 (human "swim-up" sperm [7]; Homo sapiens, Sperm, pH 5, human sperm, pH 5.0): 1.85
EC100 (100% of motile sperm immobilized within 20 seconds of contact) (human "swim-up" sperm [7]; human sperm, pH 5.0): 23 mM and ~24 mM
pEC50 (human "swim-up" sperm [7]; human sperm, pH 5.0): ~1.89
EC100 (100% of motile sperm immobilized within 20 seconds of contact) (human "swim-up" sperm [7]; human sperm, pH 7.5): ~200 mM

CCOC(=O)C(C)=O [ethyl-pyruvate]
inhibition of sperm motility in vitro ([2]; 37° C.): None of the treatments resulted in inhibition of sperm motility
inhibition of sperm motility in vitro ([2]; 37° C., listed as ethyl pyruvate): no effect on sperm motility

CC(=O)C(=O)OCCC(C)C [isoamyl-pyruvate]
inhibition of sperm motility in vitro ([2]; 37° C.): no effect on sperm motility

O=C(O)c1nn(Cc2ccc(Cl)cc2Cl)c2ccccc12 [lonidamin, reference compound]
motility development after short exposure and washout ([1]; PBS with 0.5 mM lonidamine): will permanently impair motility development
development of sperm motility ([2]; HTF with 0.5 mM Lonidamin): appeared to inhibit the development of sperm motility

Cc1ncc(C[n+]2csc(CCO)c2C)c(=O)[nH]1 [oxythiamine, reference compound]
motility development after short exposure and washout ([1]; PBS with 1 mM compound): will permanently impair motility development
development of sperm motility ([2]; HTF with 1 mM compound): appeared to inhibit the development of sperm motility

CCCOC(=O)C(C)=O [propyl-pyruvate]
inhibition of sperm motility in vitro ([2]; 37° C.): no effect on sperm motility
